Tests used:
Assay type in all cases: biochemical
B-Raf V600E = molecular target: T1, B-Raf V600E (Homo sapiens, UniProt P15056, V600E); experiment: AlphaScreen kinase assay, B-Raf V600E; settings: read-out: IC50, activity toward kinase B-Raf V600E
T1 construct: P4254. pFastBacBD-CDC37 BRAF D437-K722-X, V600E; His6 with pFastBac HT leader (TEV site) (N); made in house; host or cells: Sf9 (baculovirus; chaperone CDC37 co-expressed)

FGFR1 = molecular target: T2, FGFR1 (Homo sapiens, UniProt P11362, C488A/C584S); experiment: AlphaScreen kinase assay, FGFR1; settings: read-out: IC50, activity toward kinase FGFR
T2 construct: P1351.pET N6 BI-PTP FGFR A458-E765-X C488A, C584S; made in house; host or cells: E. coli (PTP1B co-expressed)

MAP2K1 = molecular target: T3, MAP2K1 (Homo sapiens, UniProt Q02750); experiment: Z'-Lyte FRET kinase assay (Invitrogen), MAP2K1; settings: read-out: IC50, activity toward kinase MAP2K1
T3 construct: purchased Invitrogen (assay run by Invitrogen)

Ret = molecular target: T4, Ret (Homo sapiens, UniProt P07949); experiment: AlphaScreen kinase assay, Ret; settings: read-out: IC50, activity toward kinase Ret
T4 construct: P1378.pET-SF BI-PTP RET H661-R1012 HIS; made in house
T4 sequence (P07949 with tags, fused parts or gaps): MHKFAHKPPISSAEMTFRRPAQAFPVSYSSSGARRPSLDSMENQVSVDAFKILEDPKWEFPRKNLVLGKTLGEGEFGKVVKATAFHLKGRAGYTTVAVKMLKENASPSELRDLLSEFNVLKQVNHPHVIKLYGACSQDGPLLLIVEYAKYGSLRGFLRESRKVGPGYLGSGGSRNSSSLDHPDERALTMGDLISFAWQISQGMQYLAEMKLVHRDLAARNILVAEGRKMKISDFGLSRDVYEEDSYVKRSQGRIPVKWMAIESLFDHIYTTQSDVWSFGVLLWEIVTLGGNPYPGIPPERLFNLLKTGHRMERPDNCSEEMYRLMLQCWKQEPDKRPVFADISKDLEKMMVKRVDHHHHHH

Stk6 = molecular target: T5, Stk6 (Homo sapiens, UniProt O14965); experiment: Z'-Lyte FRET kinase assay (Invitrogen), Stk6; settings: read-out: IC50, activity toward kinase Stk6
T5 construct: purchased Invitrogen (Carlsbad, Calif.), screening service
T5 sequence (O14965 1-403): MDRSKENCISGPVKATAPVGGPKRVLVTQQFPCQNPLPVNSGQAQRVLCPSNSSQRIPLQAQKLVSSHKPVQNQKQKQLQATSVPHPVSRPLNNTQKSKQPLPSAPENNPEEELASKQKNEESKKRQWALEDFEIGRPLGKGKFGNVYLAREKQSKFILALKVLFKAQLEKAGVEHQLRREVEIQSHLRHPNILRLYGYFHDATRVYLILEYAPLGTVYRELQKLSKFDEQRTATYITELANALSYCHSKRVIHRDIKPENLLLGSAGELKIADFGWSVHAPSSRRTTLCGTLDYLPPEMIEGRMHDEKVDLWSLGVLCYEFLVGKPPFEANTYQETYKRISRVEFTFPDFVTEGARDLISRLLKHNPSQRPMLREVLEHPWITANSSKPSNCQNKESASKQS

Akt3 = Akt3 (Homo sapiens, UniProt Q9Y243); experiment: AlphaScreen kinase assay, Akt3; settings: read-out: IC50, activity toward kinase Akt3
Outline: (§1)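 Emission from acceptor beads reports phosphorylated biotin-peptide bridging antibody-coated acceptor and streptavidin donor beads; loss of signal reflects kinase inhibition. Eight-point, threefold dilution series prepared from 20 mM DMSO stocks.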

Plk1 = Plk1 (Homo sapiens, UniProt P53350); experiment: AlphaScreen kinase assay, Plk1; settings: read-out: IC50, activity toward kinase Plk1
Description: AlphaScreen assay was used to screen additional kinases. The assay is similarly dependent on the phosphorylation of a peptide substrate. In this assay, an antibody that recognizes phosphorylated substrate is bound to an acceptor bead. The peptide substrate is attached to biotin, which binds to a donor head that contains streptavidin. Thus phosphorylated substrate is bound by antibody and streptavidin, bringing the donor and acceptor heads into close proximity when kinase is not inhibited. The donor produces singlet oxygen which results in emission from the acceptor when they are in close proximity. Conversely, when kinase is inhibited, the donor and acceptor beads are not associated and the emission from the acceptor is reduced.
AlphaScreen assays were done using compounds dissolved in DMSO to a concentration of 20 mM. The compounds were diluted accordingly to the desired final concentrations in each sample well, using 1:3 serial dilution for a total of 8 concentration points.

Fak = molecular target: T6, Fak (Homo sapiens, UniProt Q05397); experiment: AlphaScreen kinase assay, Fak; settings: read-out: IC50, activity toward kinase Fak
T6 construct: P1358.pFastBacHtb FAK S411-Q686-X; His6 with pFastBacHTb leader (TEV site) (N); made in house; host or cells: Sf9 (baculovirus)

Flt1 = molecular target: T7, Flt1 (Homo sapiens, UniProt P17948); experiment: AlphaScreen kinase assay, Flt1; settings: read-out: IC50, activity toward kinase Flt1
T7 construct: P1826.pETN6 BI-PTP FLT1 M799-D1165-X WT; His6 (N); made in house; host or cells: E. coli (PTP1B co-expressed)
T7 sequence (P17948 with tags, fused parts or gaps): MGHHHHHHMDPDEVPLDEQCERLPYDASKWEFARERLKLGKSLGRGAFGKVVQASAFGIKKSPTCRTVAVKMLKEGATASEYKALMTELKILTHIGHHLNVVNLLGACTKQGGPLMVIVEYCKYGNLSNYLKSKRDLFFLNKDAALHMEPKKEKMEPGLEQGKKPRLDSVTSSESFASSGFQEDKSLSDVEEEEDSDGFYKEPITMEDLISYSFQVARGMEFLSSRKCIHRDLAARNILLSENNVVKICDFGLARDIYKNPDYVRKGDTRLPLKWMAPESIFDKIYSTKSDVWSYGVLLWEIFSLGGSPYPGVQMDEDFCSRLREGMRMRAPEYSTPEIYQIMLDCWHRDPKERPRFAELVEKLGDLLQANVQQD

Kdr = molecular target: T8, Kdr (Homo sapiens, UniProt P35968); experiment: Z'-Lyte FRET kinase assay (Invitrogen), Kdr; settings: read-out: IC50, activity toward kinase Kdr
T8 construct: purchased Invitrogen (assay run by Invitrogen)

Kit = molecular target: T9, Kit (Homo sapiens, UniProt P10721); experiment: AlphaScreen kinase assay, Kit; settings: read-out: IC50, activity toward kinase Kit
T9 construct: P1332.N6 BI PTP KIT M552-K948-X COD; His6 (N); made in house; host or cells: E. coli (PTP1B co-expressed)

Pyk2 = molecular target: T10, Pyk2 (Homo sapiens, UniProt Q14289); experiment: AlphaScreen kinase assay, Pyk2; settings: read-out: IC50, activity toward kinase Pyk2
T10 construct: purchased Upstate Biotechnology
Description: AlphaScreen assays were done using compounds dissolved in DMSO to a concentration of 20 mM. The compounds were diluted accordingly to the desired final concentrations in each sample well, using 1:3 serial dilution for a total of 8 concentration points. Plates were prepared such that each kinase reaction is 20 μl in 1× kinase buffer, 5% DMSO and 10 μM ATP. After incubation of the kinase reaction for 1 hour at room temperature, 5 μl of donor beads in stop buffer (50 mM EDTA in 1× kinase buffer) was added, the sample was mixed and incubated for 20 minutes at room temperature before adding 5 μl of acceptor beads in stop buffer. The samples were incubated for 60 minutes at room temperature and the signal per well was read on AlphaQuest reader.

Btk = molecular target: T11, Btk (Homo sapiens, UniProt Q06187); experiment: Z'-Lyte FRET kinase assay (Invitrogen), Btk; settings: read-out: IC50, activity toward kinase Btk
T11 construct: purchased Invitrogen (assay run by Invitrogen)

EphB2 = molecular target: T12, EphB2 (Homo sapiens, UniProt P29323); experiment: Z'-Lyte FRET kinase assay (Invitrogen), EphB2; settings: read-out: IC50, activity toward kinase EphB2
T12 construct: purchased Invitrogen (assay run by Invitrogen)
T12 sequence (P29323 19-1055): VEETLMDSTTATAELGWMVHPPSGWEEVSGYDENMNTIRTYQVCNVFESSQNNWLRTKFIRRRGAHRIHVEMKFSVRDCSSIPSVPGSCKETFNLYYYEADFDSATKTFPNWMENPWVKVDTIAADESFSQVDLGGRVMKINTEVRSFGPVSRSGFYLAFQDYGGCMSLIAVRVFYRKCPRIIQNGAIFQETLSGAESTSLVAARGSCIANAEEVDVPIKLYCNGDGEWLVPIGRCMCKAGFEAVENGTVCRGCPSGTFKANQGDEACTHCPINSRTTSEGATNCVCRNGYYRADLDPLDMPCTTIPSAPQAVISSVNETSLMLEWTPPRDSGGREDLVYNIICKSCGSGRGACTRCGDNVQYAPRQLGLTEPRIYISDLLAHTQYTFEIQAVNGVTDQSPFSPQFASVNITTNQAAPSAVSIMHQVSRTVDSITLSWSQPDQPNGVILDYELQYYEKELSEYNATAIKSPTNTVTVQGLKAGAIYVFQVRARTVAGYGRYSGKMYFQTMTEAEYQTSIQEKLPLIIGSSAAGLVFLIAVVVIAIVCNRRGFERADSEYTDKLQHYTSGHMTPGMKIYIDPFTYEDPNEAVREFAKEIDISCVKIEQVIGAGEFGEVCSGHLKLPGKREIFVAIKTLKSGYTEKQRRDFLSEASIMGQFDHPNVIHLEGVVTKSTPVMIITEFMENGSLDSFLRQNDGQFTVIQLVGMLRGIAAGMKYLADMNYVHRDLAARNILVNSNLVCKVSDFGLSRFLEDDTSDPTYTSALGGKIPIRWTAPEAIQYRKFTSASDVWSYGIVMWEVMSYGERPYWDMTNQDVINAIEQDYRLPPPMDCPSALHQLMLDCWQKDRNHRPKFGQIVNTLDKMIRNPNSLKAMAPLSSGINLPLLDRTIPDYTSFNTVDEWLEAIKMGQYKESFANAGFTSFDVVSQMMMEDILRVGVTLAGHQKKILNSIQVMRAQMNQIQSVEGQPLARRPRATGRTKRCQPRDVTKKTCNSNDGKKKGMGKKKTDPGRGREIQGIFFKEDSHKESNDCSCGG
Outline: (§2)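 Serially diluted compound (final 1% DMSO) incubated 1 h at room temperature with kinase, 2 μM FRET peptide and 10 μM ATP in pH 7.5 HEPES buffer. Site-specific protease then cleaves unphosphorylated peptide (1 h); inhibition read as increased coumarin-to-fluorescein emission ratio.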

Yes = molecular target: T13, Yes (Homo sapiens, UniProt P07947); experiment: Z'-Lyte FRET kinase assay (Invitrogen), Yes; settings: read-out: IC50, activity toward kinase Yes
T13 construct: purchased Invitrogen (Carlsbad, Calif.), screening service
Outline: as §2

Gsk3β = Gsk3β (Homo sapiens, UniProt P49841); experiment: AlphaScreen kinase assay, Gsk3β; settings: read-out: IC50, activity toward kinase Gsk3β
Outline: as §1

Measured: IC50

T11 sequence (Q06187 whole entry): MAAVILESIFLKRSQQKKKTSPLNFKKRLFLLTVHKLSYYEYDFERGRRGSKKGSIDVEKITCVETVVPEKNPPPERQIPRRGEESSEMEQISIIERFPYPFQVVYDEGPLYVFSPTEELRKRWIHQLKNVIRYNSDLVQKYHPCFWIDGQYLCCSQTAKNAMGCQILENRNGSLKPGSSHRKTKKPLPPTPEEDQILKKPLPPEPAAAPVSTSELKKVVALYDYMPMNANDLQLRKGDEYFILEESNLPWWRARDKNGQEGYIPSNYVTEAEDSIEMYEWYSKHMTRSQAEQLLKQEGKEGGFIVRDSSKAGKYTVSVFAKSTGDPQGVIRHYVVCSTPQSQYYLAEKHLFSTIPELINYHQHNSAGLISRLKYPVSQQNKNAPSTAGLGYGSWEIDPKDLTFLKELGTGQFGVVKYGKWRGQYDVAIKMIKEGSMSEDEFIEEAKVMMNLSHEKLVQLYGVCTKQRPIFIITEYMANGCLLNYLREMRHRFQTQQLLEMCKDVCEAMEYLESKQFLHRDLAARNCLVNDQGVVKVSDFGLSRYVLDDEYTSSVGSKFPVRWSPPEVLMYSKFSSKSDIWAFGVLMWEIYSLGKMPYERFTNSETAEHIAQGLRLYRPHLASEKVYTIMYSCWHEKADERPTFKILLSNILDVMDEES
T1 sequence (P15056 with tags, fused parts or gaps V600E): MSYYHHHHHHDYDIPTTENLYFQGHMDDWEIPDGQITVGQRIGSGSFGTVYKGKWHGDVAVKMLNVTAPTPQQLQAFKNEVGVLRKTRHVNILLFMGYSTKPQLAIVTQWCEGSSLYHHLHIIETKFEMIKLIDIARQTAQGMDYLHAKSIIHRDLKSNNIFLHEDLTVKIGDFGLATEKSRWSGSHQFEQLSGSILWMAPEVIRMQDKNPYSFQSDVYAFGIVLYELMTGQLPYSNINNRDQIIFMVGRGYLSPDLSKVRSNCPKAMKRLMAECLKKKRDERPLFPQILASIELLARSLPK
T8 sequence (P35968 20-1356): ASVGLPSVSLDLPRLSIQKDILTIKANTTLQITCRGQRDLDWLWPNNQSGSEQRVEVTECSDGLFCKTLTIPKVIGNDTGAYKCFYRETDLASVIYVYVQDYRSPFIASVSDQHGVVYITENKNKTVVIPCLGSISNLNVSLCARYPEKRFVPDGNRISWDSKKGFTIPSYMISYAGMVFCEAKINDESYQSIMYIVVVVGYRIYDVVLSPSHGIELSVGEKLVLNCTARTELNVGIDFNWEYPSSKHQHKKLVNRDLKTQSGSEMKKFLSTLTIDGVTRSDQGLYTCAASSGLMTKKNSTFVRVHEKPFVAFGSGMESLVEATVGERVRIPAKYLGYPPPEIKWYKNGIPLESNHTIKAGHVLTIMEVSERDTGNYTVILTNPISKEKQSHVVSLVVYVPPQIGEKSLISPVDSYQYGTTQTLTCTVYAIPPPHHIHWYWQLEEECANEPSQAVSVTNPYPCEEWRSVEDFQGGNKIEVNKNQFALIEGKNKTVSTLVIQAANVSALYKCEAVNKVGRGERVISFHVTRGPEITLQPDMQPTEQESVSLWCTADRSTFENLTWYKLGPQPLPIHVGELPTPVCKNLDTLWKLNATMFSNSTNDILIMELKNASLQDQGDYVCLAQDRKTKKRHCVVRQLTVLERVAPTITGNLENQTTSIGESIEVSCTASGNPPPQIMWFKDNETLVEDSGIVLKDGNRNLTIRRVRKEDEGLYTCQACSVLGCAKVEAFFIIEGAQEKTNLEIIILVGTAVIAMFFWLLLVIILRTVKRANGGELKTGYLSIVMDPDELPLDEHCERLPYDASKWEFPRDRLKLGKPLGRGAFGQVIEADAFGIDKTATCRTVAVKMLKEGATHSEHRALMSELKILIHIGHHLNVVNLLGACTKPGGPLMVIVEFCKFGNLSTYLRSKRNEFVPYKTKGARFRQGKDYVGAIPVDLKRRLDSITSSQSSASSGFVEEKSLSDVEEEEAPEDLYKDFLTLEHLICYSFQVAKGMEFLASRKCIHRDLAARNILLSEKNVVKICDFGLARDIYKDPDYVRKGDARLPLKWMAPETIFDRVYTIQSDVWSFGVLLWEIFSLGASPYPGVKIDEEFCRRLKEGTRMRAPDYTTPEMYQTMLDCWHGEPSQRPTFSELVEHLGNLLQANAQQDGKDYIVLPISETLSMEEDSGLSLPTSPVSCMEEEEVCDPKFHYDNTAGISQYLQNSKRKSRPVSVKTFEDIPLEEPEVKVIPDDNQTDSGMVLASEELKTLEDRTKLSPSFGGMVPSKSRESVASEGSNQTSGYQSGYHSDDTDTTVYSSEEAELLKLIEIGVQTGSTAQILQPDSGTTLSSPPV
Plk1, sequence (P53350 whole entry): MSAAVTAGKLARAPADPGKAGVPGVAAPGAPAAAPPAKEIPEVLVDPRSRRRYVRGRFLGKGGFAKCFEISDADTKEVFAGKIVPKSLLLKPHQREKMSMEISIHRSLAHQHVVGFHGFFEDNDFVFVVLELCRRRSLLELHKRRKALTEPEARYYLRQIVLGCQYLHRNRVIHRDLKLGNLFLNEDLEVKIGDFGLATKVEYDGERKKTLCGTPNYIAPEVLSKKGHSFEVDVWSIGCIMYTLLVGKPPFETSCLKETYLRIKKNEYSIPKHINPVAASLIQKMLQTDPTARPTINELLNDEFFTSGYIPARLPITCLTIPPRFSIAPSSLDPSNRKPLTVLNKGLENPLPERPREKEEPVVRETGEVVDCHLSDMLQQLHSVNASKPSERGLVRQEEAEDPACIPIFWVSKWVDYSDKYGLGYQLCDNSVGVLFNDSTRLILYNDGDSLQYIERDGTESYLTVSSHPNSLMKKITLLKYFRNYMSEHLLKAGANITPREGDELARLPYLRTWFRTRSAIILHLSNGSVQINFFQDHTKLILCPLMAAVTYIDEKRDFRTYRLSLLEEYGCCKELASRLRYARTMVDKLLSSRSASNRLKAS
T13 sequence (P07947 whole entry): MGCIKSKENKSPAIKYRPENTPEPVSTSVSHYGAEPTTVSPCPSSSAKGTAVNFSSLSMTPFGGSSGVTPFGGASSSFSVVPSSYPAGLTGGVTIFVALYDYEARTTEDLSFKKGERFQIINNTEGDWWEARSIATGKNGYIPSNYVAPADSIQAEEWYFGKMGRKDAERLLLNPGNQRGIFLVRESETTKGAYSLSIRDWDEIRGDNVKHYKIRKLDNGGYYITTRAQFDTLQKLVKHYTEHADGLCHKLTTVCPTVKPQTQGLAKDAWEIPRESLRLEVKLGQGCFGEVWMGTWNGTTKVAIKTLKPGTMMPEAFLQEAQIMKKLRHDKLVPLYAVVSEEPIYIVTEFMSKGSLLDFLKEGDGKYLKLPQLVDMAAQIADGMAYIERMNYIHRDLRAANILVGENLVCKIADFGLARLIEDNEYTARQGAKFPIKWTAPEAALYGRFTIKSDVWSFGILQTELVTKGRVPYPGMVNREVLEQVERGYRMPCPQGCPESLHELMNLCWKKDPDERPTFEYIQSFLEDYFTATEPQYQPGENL
T3 sequence (Q02750 whole entry): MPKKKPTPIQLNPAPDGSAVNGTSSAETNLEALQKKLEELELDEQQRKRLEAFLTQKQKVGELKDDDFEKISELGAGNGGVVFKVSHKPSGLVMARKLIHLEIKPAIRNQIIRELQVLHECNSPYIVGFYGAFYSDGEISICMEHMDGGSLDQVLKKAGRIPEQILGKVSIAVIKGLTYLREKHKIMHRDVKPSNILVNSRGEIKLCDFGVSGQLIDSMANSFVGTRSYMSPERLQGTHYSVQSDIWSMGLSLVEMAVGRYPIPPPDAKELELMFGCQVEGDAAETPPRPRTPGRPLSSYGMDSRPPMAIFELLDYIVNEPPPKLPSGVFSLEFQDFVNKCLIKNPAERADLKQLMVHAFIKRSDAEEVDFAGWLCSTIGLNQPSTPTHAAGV
Akt3, sequence (Q9Y243 whole entry): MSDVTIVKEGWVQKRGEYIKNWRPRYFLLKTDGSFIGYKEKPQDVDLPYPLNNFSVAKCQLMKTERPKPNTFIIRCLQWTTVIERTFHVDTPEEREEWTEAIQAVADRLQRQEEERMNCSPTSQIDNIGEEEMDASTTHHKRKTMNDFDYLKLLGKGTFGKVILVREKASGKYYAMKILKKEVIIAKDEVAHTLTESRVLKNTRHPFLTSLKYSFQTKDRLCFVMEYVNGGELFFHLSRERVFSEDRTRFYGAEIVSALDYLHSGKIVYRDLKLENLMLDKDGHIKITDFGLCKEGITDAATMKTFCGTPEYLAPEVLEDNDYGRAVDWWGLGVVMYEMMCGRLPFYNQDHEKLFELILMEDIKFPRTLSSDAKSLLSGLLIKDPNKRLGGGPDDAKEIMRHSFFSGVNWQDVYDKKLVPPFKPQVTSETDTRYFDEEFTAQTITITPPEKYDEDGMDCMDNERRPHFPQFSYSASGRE
T2 sequence (P11362 458-765 C488A/C584S): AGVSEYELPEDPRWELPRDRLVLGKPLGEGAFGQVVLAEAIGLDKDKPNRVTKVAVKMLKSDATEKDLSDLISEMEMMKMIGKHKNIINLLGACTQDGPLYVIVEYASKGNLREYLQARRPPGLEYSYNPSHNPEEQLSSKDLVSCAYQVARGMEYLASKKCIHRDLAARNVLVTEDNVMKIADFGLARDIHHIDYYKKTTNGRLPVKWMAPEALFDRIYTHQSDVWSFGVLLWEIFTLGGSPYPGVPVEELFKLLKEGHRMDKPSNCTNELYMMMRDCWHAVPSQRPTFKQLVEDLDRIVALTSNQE
T6 sequence (Q05397 411-686): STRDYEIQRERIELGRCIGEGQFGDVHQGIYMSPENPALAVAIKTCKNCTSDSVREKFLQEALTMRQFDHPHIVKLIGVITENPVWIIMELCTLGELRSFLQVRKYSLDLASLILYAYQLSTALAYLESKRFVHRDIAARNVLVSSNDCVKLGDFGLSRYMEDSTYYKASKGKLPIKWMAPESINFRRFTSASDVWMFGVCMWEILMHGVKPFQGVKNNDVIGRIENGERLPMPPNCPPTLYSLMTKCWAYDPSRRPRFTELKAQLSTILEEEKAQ

COc1cccc(C(=O)c2c[nH]c3nccc(-c4cccc(N)c4)c23)c1 [Compound P-0099]
≤ 10 µM: B-Raf V600E | FGFR1 | MAP2K1 | Ret | Stk6 | Akt3 | Plk1

O=[N+]([O-])c1cccc(S(=O)(=O)NCc2ccnc3[nH]ccc23)c1 [Compound P-0480]
≤ 10 µM: Plk1

Cc1occc1Sc1c[nH]c2ncccc12 [Compound P-0018]
≤ 10 µM: Fak | Flt1 | Kdr | Kit | MAP2K1 | Pyk2 | Stk6 | Plk1

Clc1ccc(Cc2c[nH]c3nccc(-c4ccccc4)c23)cn1 [Compound P-0286]
≤ 10 µM: Ret | Plk1

O=S(=O)(Cc1cccc(Cl)c1)NCc1c[nH]c2ncccc12 [Compound P-1138]
≤ 10 µM: B-Raf V600E | Plk1

O=S(=O)(NCc1ccnc2[nH]ccc12)c1ccc(F)c(F)c1 [Compound P-0345]
≤ 10 µM: Stk6 | Plk1

O=C(O)CCc1c[nH]c2ncccc12 [Compound P-0490]
≤ 10 µM: Plk1

Nc1cccc(-c2ccnc3[nH]cc(C(=O)c4cccc(Cl)c4Cl)c23)c1 [Compound P-0075]
≤ 10 µM: B-Raf V600E | Btk | EphB2 | Kdr | Ret | Yes | Plk1

Nc1cccc(-c2ccnc3[nH]cc(C(=O)c4ccc(Cl)cc4)c23)c1 [Compound P-0148]
≤ 10 µM: B-Raf V600E | Btk | Ret | Stk6 | Gsk3β | Plk1

O=C(c1ccc(Cl)cc1)c1c[nH]c2nccc(-c3cccnc3)c12 [Compound P-0113]
≤ 10 µM: Btk | Kdr | Ret | Plk1

O=S(=O)(Cc1ccccc1)NCc1c[nH]c2ncccc12 [Compound P-0581]
≤ 10 µM: Plk1

Cc1ccccc1C(=O)c1c[nH]c2nccc(-c3cccnc3)c12 [Compound P-0083]
≤ 10 µM: Btk | EphB2 | Ret | Yes | Plk1

Cc1cc(C(=O)c2c[nH]c3nccc(-c4cccc(N)c4)c23)n(C)n1 [Compound P-0332]
≤ 10 µM: Plk1

O=[N+]([O-])c1ccc(S(=O)(=O)NCc2ccnc3[nH]ccc23)cc1 [Compound P-0366]
≤ 10 µM: Plk1

— patent publication US8415469B2, “Compounds and methods for kinase modulation, and indications therefor” (Plexxikon Inc., priority 2005, dated 2013)
